Data: patent publication US9169205B2, “Pyrrolidine derivatives, pharmaceutical compositions and uses thereof” (Boehringer Ingelheim International GmbH, priority 2012, dated 2015)
pIC50: −log10 of the molar value.

Molecular target: human ACC2 (Homo sapiens (Human), UniProt O00763)
Experiment: ACC2 assay (spectrophotometric 384 well assay, NADH-linked kinetic method)
Assay type: biochemical
Settings: hACC2 construct lacking 128 N-terminal amino acids, 25° C., 340 nm
Experimental: Spectrophotometric 384 Well Assay
Malonyl CoA formation by acetyl CoA carboxylases is stoichometrically linked to the consumption of ATP. ACC2 activity is measured in a NADH-linked kinetic method measuring ADP generated during the ACC reaction using a coupled lactate dehydrogenase/pyruvate kinase reaction.
The protein is then expressed in insect cells using a baculoviral expression system. Protein purification is performed by anion exchange.
All compounds are dissolved in dimethyl sulfoxide (DMSO) to a concentration of 10 mM.
The enzymatic reaction is then started by addition of a mixture of NADH, acetyl Coenzyme A (both 200 μM f.c.) and ATP (500 uM f.c.). The decrease of the optical density (slope S) is then determined at 25° C. at a wavelength of 340 nm over 15 minutes in a spectrophotometric reader.
Each assay microtiter plate contains wells with vehicle instead of compound as controls for the non-inhibited enzyme (100% CTL; ‘HIGH’) and wells without acetyl-CoA as controls for non-specific NADH degradation (0% CTL; ‘LOW’).

human ACC2, sequence (O00763 129-2458): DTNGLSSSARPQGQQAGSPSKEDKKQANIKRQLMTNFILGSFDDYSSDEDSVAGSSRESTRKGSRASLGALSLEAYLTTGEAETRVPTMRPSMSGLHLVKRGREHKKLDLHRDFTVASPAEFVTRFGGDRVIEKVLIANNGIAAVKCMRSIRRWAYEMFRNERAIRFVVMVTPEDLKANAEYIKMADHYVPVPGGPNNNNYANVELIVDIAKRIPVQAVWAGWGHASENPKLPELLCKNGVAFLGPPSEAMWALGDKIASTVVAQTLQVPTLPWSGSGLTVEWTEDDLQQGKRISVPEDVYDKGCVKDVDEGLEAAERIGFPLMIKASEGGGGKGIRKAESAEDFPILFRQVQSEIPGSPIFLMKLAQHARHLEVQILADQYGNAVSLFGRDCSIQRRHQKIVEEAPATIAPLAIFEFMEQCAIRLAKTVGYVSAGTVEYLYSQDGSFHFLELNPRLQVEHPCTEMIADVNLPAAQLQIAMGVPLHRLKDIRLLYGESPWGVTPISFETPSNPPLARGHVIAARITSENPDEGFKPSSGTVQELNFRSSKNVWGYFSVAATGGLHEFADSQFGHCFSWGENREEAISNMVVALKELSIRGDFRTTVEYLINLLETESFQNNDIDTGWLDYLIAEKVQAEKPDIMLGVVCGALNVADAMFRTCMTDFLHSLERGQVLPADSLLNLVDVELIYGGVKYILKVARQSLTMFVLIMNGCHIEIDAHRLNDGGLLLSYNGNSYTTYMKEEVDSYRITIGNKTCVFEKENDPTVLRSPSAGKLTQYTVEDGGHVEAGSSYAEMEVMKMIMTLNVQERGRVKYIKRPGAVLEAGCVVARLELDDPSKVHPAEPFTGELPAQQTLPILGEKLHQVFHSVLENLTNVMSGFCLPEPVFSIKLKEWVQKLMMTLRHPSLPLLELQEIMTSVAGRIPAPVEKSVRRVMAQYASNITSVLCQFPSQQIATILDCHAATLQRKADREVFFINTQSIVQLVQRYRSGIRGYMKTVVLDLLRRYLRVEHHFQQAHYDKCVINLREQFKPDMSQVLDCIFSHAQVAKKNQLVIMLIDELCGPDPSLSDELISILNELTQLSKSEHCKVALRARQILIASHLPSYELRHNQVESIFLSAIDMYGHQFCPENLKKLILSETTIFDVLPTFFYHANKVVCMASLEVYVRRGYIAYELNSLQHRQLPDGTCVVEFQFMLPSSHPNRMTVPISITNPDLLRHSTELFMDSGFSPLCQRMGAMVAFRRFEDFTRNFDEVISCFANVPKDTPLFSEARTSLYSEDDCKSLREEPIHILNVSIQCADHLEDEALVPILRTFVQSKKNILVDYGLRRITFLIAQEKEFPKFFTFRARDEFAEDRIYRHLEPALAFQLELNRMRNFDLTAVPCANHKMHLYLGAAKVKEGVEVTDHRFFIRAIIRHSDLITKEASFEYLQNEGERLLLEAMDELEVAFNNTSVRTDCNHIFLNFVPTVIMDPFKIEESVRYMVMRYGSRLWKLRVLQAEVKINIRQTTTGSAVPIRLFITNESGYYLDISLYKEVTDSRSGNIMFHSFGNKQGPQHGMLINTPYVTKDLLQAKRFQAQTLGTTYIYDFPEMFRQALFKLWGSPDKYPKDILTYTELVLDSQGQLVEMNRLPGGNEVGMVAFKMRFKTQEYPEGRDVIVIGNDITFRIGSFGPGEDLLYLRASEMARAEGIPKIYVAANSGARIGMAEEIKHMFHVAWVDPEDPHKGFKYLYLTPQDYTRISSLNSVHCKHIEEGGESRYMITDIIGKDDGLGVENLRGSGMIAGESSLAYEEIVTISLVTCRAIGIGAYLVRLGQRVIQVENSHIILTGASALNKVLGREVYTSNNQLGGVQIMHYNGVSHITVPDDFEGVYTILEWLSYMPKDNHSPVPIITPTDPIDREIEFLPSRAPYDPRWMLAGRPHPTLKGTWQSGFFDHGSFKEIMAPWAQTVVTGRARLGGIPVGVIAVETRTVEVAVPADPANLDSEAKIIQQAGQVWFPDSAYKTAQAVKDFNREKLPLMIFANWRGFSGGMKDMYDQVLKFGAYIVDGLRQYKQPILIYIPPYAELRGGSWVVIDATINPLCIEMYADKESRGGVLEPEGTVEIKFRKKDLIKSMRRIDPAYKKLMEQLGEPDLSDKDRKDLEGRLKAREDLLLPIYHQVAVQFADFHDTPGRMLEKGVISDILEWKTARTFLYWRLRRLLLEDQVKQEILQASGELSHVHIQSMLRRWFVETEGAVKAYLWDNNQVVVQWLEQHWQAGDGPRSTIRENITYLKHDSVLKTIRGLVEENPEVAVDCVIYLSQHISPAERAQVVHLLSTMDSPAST

Compound | pIC50
CNC(=O)c1cccc(C(=O)N[C@@H](C)c2ccc(O[C@@H]3CCN(c4ccc(OCC5CC5)cc4)C3)cc2)n1 [Example 2.14] | 6.15
C[C@H](NC(=O)C1(C(=O)N(C)C)CC1)c1ccc(O[C@@H]2CCN(c3ccc(OCC4CC4)cc3)C2)cc1 [Example 2.16] | 6.06
CC(C)Oc1ccc(N2CC[C@@H](Oc3ccc([C@H](C)NC(=O)C(F)(F)F)cc3)C2)cc1 [Example 2.19] | 6.91
CCC(=O)N[C@@H](C)c1ccc(O[C@@H]2CCN(c3ccc(OC(C)C)cc3)C2)cc1 [Example 2.20] | 6.11
C[C@H](NC(=O)C(F)F)c1ccc(O[C@@H]2CCN(c3ccc(OCC4CC4)cc3)C2)cc1 [Example 2.25] | 7.42
C[C@H](NC(=O)C1(C#N)CC1)c1ccc(O[C@@H]2CCN(c3ccc(OCC4CC4)cc3)C2)cc1 [Example 2.35] | 6.56
CCC(=O)Nc1nc(C)c(C(=O)N[C@@H](C)c2ccc(OC3CCN(c4ccc(OCC5CC5)cc4)C3)cc2)s1 (stereo partly shown) [Example 2.41] | 7.64
COCC(=O)Nc1nc(C)c(C(=O)N[C@@H](C)c2ccc(OC3CCN(c4ccc(OCC5CC5)cc4)C3)cc2)s1 (stereo partly shown) [Example 2.42] | 7.70
C[C@H](NC(=O)c1cnn(C(F)F)c1)c1ccc(O[C@@H]2CCN(c3ccc(OCC4CC4)cc3)C2)cc1 [Example 2.46] | 6.42
C[C@H](NC(=O)c1c[nH]nc1C(F)(F)F)c1ccc(O[C@@H]2CCN(c3ccc(OCC4CC4)cc3)C2)cc1 [Example 2.48] | 6.35
C[C@H](NC(=O)c1cnn2ccn(C)c12)c1ccc(O[C@@H]2CCN(c3ccc(OCC4CC4)cc3)C2)cc1 [Example 2.49] | 6.05
C[C@H](NC(=O)c1cnn(CCO)c1)c1ccc(O[C@@H]2CCN(c3ccc(OCC4CC4)cc3)C2)cc1 [Example 2.51] | 6.31
C[C@H](NC(=O)c1cnn(CC(F)F)c1)c1ccc(O[C@@H]2CCN(c3ccc(OCC4CC4)cc3)C2)cc1 [Example 2.52] | 6.09
CCOc1ccc(N2CC[C@@H](Oc3ccc([C@H](C)NC(=O)c4sc(NC(=O)COCc5ccccc5)nc4C)cc3)C2)cc1 [Example 2.54] | 7.35
CCOc1ccc(N2CC[C@@H](Oc3ccc([C@H](C)NC(=O)c4sc(NC(=O)COC(C)=O)nc4C)cc3)C2)cc1 [Example 2.55] | 7.28
Cc1cc(OC2CC2)ccc1N1CC[C@@H](Oc2ccc([C@H](C)NC(=O)CO)cc2)C1 [Example 2.58] | 6.13
Cc1cc(OC2CC2)ccc1N1CC[C@@H](Oc2ccc([C@H](C)NC(=O)CC#N)cc2)C1 [Example 2.59] | 6.17
Cc1cc(OC2CC2)ccc1N1CC[C@@H](Oc2ccc([C@H](C)NC(=O)c3cncs3)cc2)C1 [Example 2.60] | 6.59
Cc1cc(OC2CC2)ccc1N1CC[C@@H](Oc2ccc([C@H](C)NC(=O)c3cnco3)cc2)C1 [Example 2.61] | 6.40
CCC(=O)N[C@@H](C)c1ccc(O[C@@H]2CCN(c3ccc(OC4CC4)cc3C)C2)cc1 [Example 2.62] | 6.39
CC(=O)Nc1nc(C)c(C(=O)N[C@@H](C)c2ccc(O[C@@H]3CCN(c4ccc(OC5CC5)cc4C)C3)cc2)s1 [Example 2.63] | 6.62
Cc1cc(OC2CC2)ccc1N1CC[C@@H](Oc2ccc([C@H](C)NC(=O)c3cn[nH]c3)cc2)C1 [Example 2.64] | 6.45
Cc1cc(OC2CC2)ccc1N1CC[C@@H](Oc2ccc([C@H](C)NC(=O)c3cnoc3C)cc2)C1 [Example 2.65] | 7.05
C[C@H](NC(=O)N1CCC1)c1ccc(OC2CCN(c3ccc(OCC4CC4)cc3)C2)cc1 (stereo partly shown) [Example 3.3] | 5.90
C[C@H](NC(=O)N1CCOCC1)c1ccc(OC2CCN(c3ccc(OCC4CC4)cc3)C2)cc1 (stereo partly shown) [Example 3.5] | 6.70
C[C@H](NC(=O)N(C)Cc1ccncn1)c1ccc(OC2CCN(c3ccc(OCC4CC4)cc3)C2)cc1 (stereo partly shown) [Example 3.6] | 6.30

Further lines, results first:

pIC50 | Compound
6.92 | C[C@H](NC(=O)Cc1cncnc1)c1ccc(O[C@@H]2CCN(c3ccc(OCC4CC4)cc3)C2)cc1 [Example 2.7]
6.48 | Cc1cc(C(=O)N[C@@H](C)c2ccc(O[C@@H]3CCN(c4ccc(OCC5CC5)cc4)C3)cc2)[nH]n1 [Example 2.8]
6.86 | Cc1cc(CC(=O)N[C@@H](C)c2ccc(O[C@@H]3CCN(c4ccc(OCC5CC5)cc4)C3)cc2)on1 [Example 2.9]
7.10 | C[C@H](NC(=O)C1(C)CC1)c1ccc(O[C@@H]2CCN(c3ccc(OCC4CC4)cc3)C2)cc1 [Example 2.10]
6.88 | C[C@H](NC(=O)c1cnn(C)c1)c1ccc(O[C@@H]2CCN(c3ccc(OCC4CC4)cc3)C2)cc1 [Example 2.11]
6.40 | C[C@H](NC(=O)Cc1cc[nH]c1)c1ccc(O[C@@H]2CCN(c3ccc(OCC4CC4)cc3)C2)cc1 [Example 2.12]
6.44 | C[C@H](NC(=O)c1cc[nH]n1)c1ccc(O[C@@H]2CCN(c3ccc(OCC4CC4)cc3)C2)cc1 [Example 2.13]
6.50 | Cc1cc(C(=O)N[C@@H](C)c2ccc(O[C@@H]3CCN(c4ccc(OCC5CC5)cc4)C3)cc2)no1 [Example 2.15]
6.46 | COc1cc(C(=O)N[C@@H](C)c2ccc(O[C@@H]3CCN(c4ccc(OCC5CC5)cc4)C3)cc2)on1 [Example 2.17]
6.26 | Cc1ncncc1C(=O)N[C@@H](C)c1ccc(O[C@@H]2CCN(c3ccc(OCC4CC4)cc3)C2)cc1 [Example 2.18]
7.35 | Cc1oncc1C(=O)N[C@@H](C)c1ccc(O[C@@H]2CCN(c3ccc(OCC4CC4)cc3)C2)cc1 [Example 2.21]
7.52 | C[C@H](NC(=O)c1cnco1)c1ccc(O[C@@H]2CCN(c3ccc(OCC4CC4)cc3)C2)cc1 [Example 2.22]
7.25 | CC(C#N)C(=O)N[C@@H](C)c1ccc(O[C@@H]2CCN(c3ccc(OCC4CC4)cc3)C2)cc1 (stereo partly shown) [Example 2.23]
7.40 | CCC(=O)N[C@@H](C)c1ccc(O[C@@H]2CCN(c3ccc(OCC4CC4)cc3)C2)cc1 [Example 2.24]
7.33 | Cc1[nH]ncc1C(=O)N[C@@H](C)c1ccc(O[C@@H]2CCN(c3ccc(OCC4CC4)cc3)C2)cc1 [Example 2.26]
6.97 | C[C@H](NC(=O)c1cnc(N)o1)c1ccc(O[C@@H]2CCN(c3ccc(OCC4CC4)cc3)C2)cc1 [Example 2.27]
6.98 | C[C@H](NC(=O)c1ccns1)c1ccc(O[C@@H]2CCN(c3ccc(OCC4CC4)cc3)C2)cc1 [Example 2.28]
6.40 | C[C@H](NC(=O)CO)c1ccc(O[C@@H]2CCN(c3ccc(OCC4CC4)cc3)C2)cc1 [Example 2.29]
6.10 | C[C@H](O)C(=O)N[C@@H](C)c1ccc(O[C@@H]2CCN(c3ccc(OCC4CC4)cc3)C2)cc1 [Example 2.30]

pIC50 | Compound
7.15 | C[C@H](NC(=O)CC#N)c1ccc(O[C@@H]2CCN(c3ccc(OCC4CC4)cc3)C2)cc1 [Example 2.31]
6.10 | CC(O)C(=O)N[C@@H](C)c1ccc(O[C@@H]2CCN(c3ccc(OCC4CC4)cc3)C2)cc1 (stereo partly shown) [Example 2.33]
7.15 | C[C@H](NC(=O)c1ccon1)c1ccc(O[C@@H]2CCN(c3ccc(OCC4CC4)cc3)C2)cc1 [Example 2.34]
6.70 | C[C@H](NC(=O)c1ccnnc1)c1ccc(O[C@@H]2CCN(c3ccc(OCC4CC4)cc3)C2)cc1 [Example 2.36]
7.19 | Cc1nocc1C(=O)N[C@@H](C)c1ccc(O[C@@H]2CCN(c3ccc(OCC4CC4)cc3)C2)cc1 [Example 2.37]
7.77 | C[C@H](NC(=O)c1cncs1)c1ccc(O[C@@H]2CCN(c3ccc(OCC4CC4)cc3)C2)cc1 [Example 2.38]
6.33 | C[C@H](NC(=O)C(C)(C)C#N)c1ccc(O[C@@H]2CCN(c3ccc(OCC4CC4)cc3)C2)cc1 [Example 2.39]
6.42 | Cc1nc(N)sc1C(=O)N[C@@H](C)c1ccc(O[C@@H]2CCN(c3ccc(OCC4CC4)cc3)C2)cc1 [Example 2.40]
6.80 | C[C@H](NC(=O)c1cnc(N)s1)c1ccc(O[C@@H]2CCN(c3ccc(OCC4CC4)cc3)C2)cc1 [Example 2.43]
7.26 | C[C@H](NC(=O)c1cnn(C)c1Cl)c1ccc(O[C@@H]2CCN(c3ccc(OCC4CC4)cc3)C2)cc1 [Example 2.44]
6.00 | C[C@H](NC(=O)c1cn(C)nc1C(F)F)c1ccc(O[C@@H]2CCN(c3ccc(OCC4CC4)cc3)C2)cc1 [Example 2.45]
6.41 | Cc1c(C(=O)N[C@@H](C)c2ccc(O[C@@H]3CCN(c4ccc(OCC5CC5)cc4)C3)cc2)cnn1C [Example 2.47]
7.19 | C[C@H](NC(=O)c1cnn(C)c1N)c1ccc(O[C@@H]2CCN(c3ccc(OCC4CC4)cc3)C2)cc1 [Example 2.50]
6.38 | C[C@H](NC(=O)c1cn(C)nc1C#N)c1ccc(O[C@@H]2CCN(c3ccc(OCC4CC4)cc3)C2)cc1 [Example 2.56]
6.91 | C[C@H](NC(=O)c1c[nH]nc1C#N)c1ccc(O[C@@H]2CCN(c3ccc(OCC4CC4)cc3)C2)cc1 [Example 2.57]
7.13 | C[C@H](NC(=O)N(C)C)c1ccc(O[C@@H]2CCN(c3ccc(OCC4CC4)cc3)C2)cc1 [Example 3.1, 3-((S)-1-(4-((R)-1-(4-(cyclopropylmethoxy)phenyl)pyrrolidin-3-yloxy)phenyl)ethyl)-1,1-dimethylurea]
7.26 | CCNC(=O)N[C@@H](C)c1ccc(OC2CCN(c3ccc(OCC4CC4)cc3)C2)cc1 (stereo partly shown) [Example 3.2]
6.78 | CCN(C)C(=O)N[C@@H](C)c1ccc(OC2CCN(c3ccc(OCC4CC4)cc3)C2)cc1 (stereo partly shown) [Example 3.4]
7.25 | C[C@H](NC(=O)Nc1ccon1)c1ccc(OC2CCN(c3ccc(OCC4CC4)cc3)C2)cc1 (stereo partly shown) [Example 3.7]
